In PubChem BioAssay AID330 (DTP/NCI, 2004):
Where “and” joins values, the source holds several entries; their conditions need not be identical. Equal values may be shown once. Toxic doses and inconclusive results are not listed. The calls were made as follows: active = survival T/C of 150% or more; inactive = T/C below 125% in these data.

Tested on: P388 leukemia ip, CD2F1 mice, survival T/C
Assay: NCI In Vivo Anticancer Drug Screen. Data for tumor model P388 Leukemia (intraperitoneal) in CD2F1 (CDF1) mice
Conditions: endpoint: median survival time, higher = longer survival
Method in brief: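 Mice carrying the transplanted tumor received test compound or vehicle. Survival was recorded in each group, and the value is the treated-group measurement divided by that of the vehicle-treated control group.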

[1] = dose: 50.0 mg/kg/injection, schedule: Q01DX009 (ip), vehicle: saline
[2] = dose: 100.0 mg/kg/injection, schedule: Q01DX009 (ip), vehicle: saline
[3] = dose: 200.0 mg/kg/injection, schedule: Q01DX009 (ip), vehicle: saline
[4] = dose: 60.0 mg/kg/injection, schedule: Q01DX005 (ip), vehicle: saline with Tween-80
[5] = dose: 120.0 mg/kg/injection, schedule: Q01DX005 (ip), vehicle: saline with Tween-80
[6] = dose: 240.0 mg/kg/injection, schedule: Q01DX005 (ip), vehicle: saline with Tween-80
[7] = dose: 50.0 mg/kg/injection, schedule: Q01DX005 (ip), vehicle: Klucel (hydroxypropylcellulose) (HPC)
[8] = dose: 100.0 mg/kg/injection, schedule: Q01DX005 (ip), vehicle: Klucel (hydroxypropylcellulose) (HPC)
[9] = dose: 200.0 mg/kg/injection, schedule: Q01DX005 (ip), vehicle: Klucel (hydroxypropylcellulose) (HPC)
[10] = dose: 50.0 mg/kg/injection, schedule: Q01DX005 (ip), vehicle: saline with Tween-80
[11] = dose: 100.0 mg/kg/injection, schedule: Q01DX005 (ip), vehicle: saline with Tween-80
[12] = dose: 200.0 mg/kg/injection, schedule: Q01DX005 (ip), vehicle: saline with Tween-80

Measured: T/C

CC1CCC2CC(C3CCCC[N-]3)[N-]C(N)C2C1.CC1CCC2CC(C3CCCC[N-]3)[N-]C(N)C2C1.O=[N+]([O-])O.[Cu+] (stereo not given)
inactive: dose: 12.5 mg/kg/injection, schedule: Q04DX002 (ip), vehicle: saline 97 % of control | dose: 12.5 mg/kg/injection, schedule: Q04DX002 (ip), vehicle: suspension in saline 100 % of control | dose: 25.0 mg/kg/injection, schedule: Q04DX002 (ip), vehicle: saline 104 % of control | dose: 25.0 mg/kg/injection, schedule: Q04DX002 (ip), vehicle: suspension in saline 104 % of control and 118 % of control | dose: 50.0 mg/kg/injection, schedule: Q04DX002 (ip), vehicle: suspension in saline 111 % of control and 114 % of control | dose: 100.0 mg/kg/injection, schedule: Q04DX002 (ip), vehicle: suspension in saline 103 % of control and 105 % of control and 120 % of control

c1ccc2c(c1)[nH]c1nc3ncncc3nc12
inactive: [1] 100 % of control | [2] 100 % of control | [3] 100 % of control

CCCCCCC(C)N=[N+]([O-])CBr (stereo not given)
inactive: dose: 100.0 mg/kg/injection, schedule: Q01DX001 (ip), vehicle: other 114 % of control | dose: 200.0 mg/kg/injection, schedule: Q01DX001 (ip), vehicle: other 111 % of control | dose: 400.0 mg/kg/injection, schedule: Q01DX001 (ip), vehicle: other 103 % of control

COc1ccc2nc3cc(Cl)ccc3c(Nc3ccccc3NS(C)(=O)=O)c2n1
inactive: dose: 12.5 mg/kg/injection, schedule: Q01DX009 (ip), vehicle: other 103 % of control | dose: 25.0 mg/kg/injection, schedule: Q01DX009 (ip), vehicle: other 105 % of control | dose: 50.0 mg/kg/injection, schedule: Q01DX009 (ip), vehicle: other 105 % of control | dose: 100.0 mg/kg/injection, schedule: Q01DX009 (ip), vehicle: other 111 % of control and 112 % of control | dose: 200.0 mg/kg/injection, schedule: Q01DX009 (ip), vehicle: other 106 % of control

CN1C(=O)n2c(nc3ccccc32)C(Cl)(Cl)C1=O
inactive: [4] 104 % of control | [5] 98 % of control

Cc1ccc2c(c1)NC(=O)CC(c1ccccc1)=N2
inactive: [4] 97 % of control | [5] 96 % of control | [6] 96 % of control

CC(C)C(CC[C@@H](C)C1CC[C@@]2(C)C3=C(CC[C@]12C)[C@@]1(C)CC[C@H](O)C(C)(C)[C@@H]1CC3)S[As](C)C (stereo not given in full)
inactive: [7] 92 % of control | [8] 95 % of control | [9] 97 % of control

CCOP(=O)(Nc1ccc(OC)cc1)OCC
inactive: [1] 103 % of control | [2] 108 % of control | [3] 111 % of control

O=[N+]([O-])c1ccc(/C=C/C(CCN2CCCCC2)=N\O)o1
inactive: [4] 104 % of control | [5] 104 % of control | [6] 100 % of control

CCCCCCCC(=S)SCCCC(=O)O
inactive: dose: 50.0 mg/kg/injection, schedule: Q01DX009 (ip), vehicle: Klucel (hydroxypropylcellulose) (HPC) 100 % of control | dose: 100.0 mg/kg/injection, schedule: Q01DX009 (ip), vehicle: Klucel (hydroxypropylcellulose) (HPC) 100 % of control | dose: 200.0 mg/kg/injection, schedule: Q01DX009 (ip), vehicle: Klucel (hydroxypropylcellulose) (HPC) 99 % of control

Cc1ccc(S(=O)(=O)NCc2cccc([N+](=O)[O-])c2)cc1
inactive: dose: 60.0 mg/kg/injection, schedule: Q01DX005 (ip), vehicle: Klucel (hydroxypropylcellulose) (HPC) 94 % of control | dose: 120.0 mg/kg/injection, schedule: Q01DX005 (ip), vehicle: Klucel (hydroxypropylcellulose) (HPC) 104 % of control | dose: 240.0 mg/kg/injection, schedule: Q01DX005 (ip), vehicle: Klucel (hydroxypropylcellulose) (HPC) 98 % of control

NCCc1nc(-c2nc(C(=O)Nc3ccccc3)cs2)cs1
inactive: dose: 12.5 mg/kg/injection, schedule: Q01DX009 (ip), vehicle: distilled water + Tween-80 100 % of control | dose: 25.0 mg/kg/injection, schedule: Q01DX009 (ip), vehicle: distilled water + Tween-80 103 % of control | dose: 50.0 mg/kg/injection, schedule: Q01DX009 (ip), vehicle: distilled water + Tween-80 103 % of control | dose: 100.0 mg/kg/injection, schedule: Q01DX009 (ip), vehicle: distilled water + Tween-80 100 % of control

CCOc1cccc2c1NC(C)=C(C(=O)c1ccccc1)S2
inactive: [4] 100 % of control | [5] 95 % of control | [6] 91 % of control

N=C(N)c1ccc(N=Nc2c(O)c(C(=O)Nc3ccccc3)cc3ccccc23)cc1
inactive: [7] 100 % of control | [8] 101 % of control | [9] 100 % of control

COc1ccc2cc(C(=O)c3cc4ccc(OC)cc4oc3=O)c(=O)oc2c1
inactive: [4] 104 % of control | [5] 101 % of control | [6] 96 % of control

COP(=O)(CI)OC
inactive: [1] 102 % of control | [2] 99 % of control | [3] 107 % of control

Cc1cc(OC(=O)Nc2c(Cl)cccc2Cl)c(Cl)c(C)c1Cl
inactive: dose: 50.0 mg/kg/injection, schedule: Q01DX009 (ip), vehicle: saline with Tween-80 112 % of control | dose: 100.0 mg/kg/injection, schedule: Q01DX009 (ip), vehicle: saline with Tween-80 109 % of control | dose: 200.0 mg/kg/injection, schedule: Q01DX009 (ip), vehicle: saline with Tween-80 105 % of control

O=C(O)c1cc(Br)ccc1OCc1cccc(Cl)c1
inactive: dose: 25.0 mg/kg/injection, schedule: Q04DX003 (ip), vehicle: saline with Tween-80 101 % of control | dose: 50.0 mg/kg/injection, schedule: Q04DX003 (ip), vehicle: saline with Tween-80 98 % of control

COC(=O)c1c2c(cc3nc4ccccc4nc13)OCO2
inactive: [4] 96 % of control | [5] 97 % of control | [6] 90 % of control

O=C1OC(Nc2ccccc2)C(Cl)=C1Cl (stereo not given)
inactive: [4] 102 % of control | [5] 104 % of control | [6] 103 % of control

CN(C(=O)C(=S)c1ccccc1)c1ccccc1
inactive: dose: 100.0 mg/kg/injection, schedule: Q04DX002 (ip), vehicle: saline 104 % of control | dose: 200.0 mg/kg/injection, schedule: Q04DX002 (ip), vehicle: saline 119 % of control | dose: 400.0 mg/kg/injection, schedule: Q04DX002 (ip), vehicle: saline 117 % of control

CN1CC2c3ccccc3C(=O)C1(O)c1ccccc12 (stereo not given)
inactive: [10] 103 % of control | [11] 103 % of control | [12] 103 % of control

O=C1c2ccccc2C2(O)C3C=CCCN3CN12 (stereo not given)
inactive: [7] 101 % of control | [8] 100 % of control | [9] 100 % of control

OCCN1CCN(CC/C=C2\c3ccccc3Sc3ccc(Cl)cc32)CC1
inactive: dose: 3.13 mg/kg/injection, schedule: Q01DX009 (ip), vehicle: saline 102 % of control | dose: 6.25 mg/kg/injection, schedule: Q01DX009 (ip), vehicle: saline 113 % of control | dose: 11.0 mg/kg/injection, schedule: Q01DX009 (ip), vehicle: saline with Tween-80 109 % of control | dose: 50.0 mg/kg/injection, schedule: Q04DX003 (ip), vehicle: saline 88 % of control

CNc1ccc2[nH]c3ccccc3c2c1
inactive: [4] 104 % of control | [5] 112 % of control | [6] 104 % of control

COc1cc(O)c2c(c1)C(O)C(O)CC1OC1C(=O)/C=C/CC(C)OC2=O (stereo not given)
inactive: dose: 1.56 mg/kg/injection, schedule: Q01DX005 (ip), vehicle: saline with Tween-80 115 % of control | dose: 3.12 mg/kg/injection, schedule: Q01DX005 (ip), vehicle: saline with Tween-80 107 % of control | dose: 6.25 mg/kg/injection, schedule: Q01DX005 (ip), vehicle: saline with Tween-80 107 % of control | dose: 12.5 mg/kg/injection, schedule: Q01DX005 (ip), vehicle: saline with Tween-80 114 % of control

CCO/C(C)=N/NC(=O)c1n[nH]c2ccccc12
inactive: [10] 92 % of control | [11] 91 % of control | [12] 90 % of control

c1ccc2c3c(ccc2c1)CC1CCCN1C3 (stereo not given)
inactive: dose: 100.0 mg/kg/injection, schedule: Q04DX003 (ip), vehicle: Klucel (hydroxypropylcellulose) (HPC) 100 % of control | dose: 200.0 mg/kg/injection, schedule: Q04DX003 (ip), vehicle: Klucel (hydroxypropylcellulose) (HPC) 103 % of control

C[S+](C)CCCNC(=O)c1csc(CCNC(=O)c2ccccc2)n1
inactive: dose: 12.5 mg/kg/injection, schedule: Q04DX003 (ip), vehicle: saline + alcohol 95 % of control | dose: 25.0 mg/kg/injection, schedule: Q04DX003 (ip), vehicle: saline + alcohol 100 % of control | dose: 50.0 mg/kg/injection, schedule: Q04DX003 (ip), vehicle: saline + alcohol 100 % of control

COc1cc(C/C(=C/c2ccc(OC)c3occc23)[N+](=O)[O-])cc(OC)c1OC
inactive: [10] 98 % of control | [11] 107 % of control | [12] 113 % of control
